Test results reported in PMC8151276, “An Integrated Approach toward NanoBRET Tracers for Analysis of GPCR Ligand Engagement” (Molecules, 2021).

Tests used:
Assay type in all cases: binding
NPBWR2 = target: T1, NPBWR2 (Homo sapiens, UniProt P48146); assay: NanoBRET screen HiBiT-NPBWR2 in HEK293; details: NPBWR2
T1 construct: purchased Promega (in-house HiBiT-GPCR construct library, NanoBRET)
Description: (§1) Each tracer candidate was screened across the entire library of HiBiT-GPCR constructs using NanoBRET as the detection modality. As depicted in Figure 4A, the specificity of interactions was evaluated through decrease in BRET due to competitive displacement of a bound tracer by excess parental compound. Each tracer was analyzed for binding to each HiBiT-GPCR fusion in the absence and in the presence of competing parental compound. Briefly, HEK293 cells were transfected with HiBiT-GPCR constructs diluted into promoterless DNA to reduce expression and maximize translocation to the cell surface. Each tracer candidate was then screened at concentrations of 1 μM and 0.1 μM across cells expressing these fusions. Cells were treated for 1.5 h with tracer either alone or in the presence of 20 μM competing parental compound (i.e., control). BRET was measured upon addition of purified LgBiT and subsequent complementation with HiBiT genetically fused to a GPCR. The specificity of interactions was assessed through a decrease in BRET signal due to competitive displacement of the bound tracer. To further gauge the robustness of these interactions, the fold response over the control (i.e., BRETtracer/BRETcontrol) was calculated. We chose a 1.5-fold response, which translates to ≥7-fold signal over noise as the minimal threshold required to score an interaction as positive. […]. Below we highlight the screening results obtained for our exemplary fluorescent tracers based on Clozapine, Amitriptyline and AZD1283.
(§2) HiBiT-GPCR DNA constructs were diluted in 10 mM Tris pH 8 to a final concentration of 0.01 μg/μL, arrayed in 96-well plates and stored at −20 °C. For transfection, HEK293 cells were suspended in Opti-MEM (without phenol red) supplemented with 2% fetal bovine serum (Seradigm) and 100 units/mL penicillin–streptomycin (Gibco) at a final concentration of 220,000 cells/mL and dispensed into white 96-well plates at 90 μL/well. Subsequent transfections and screens were carried using an Agilent Bravo Automated Liquid Handling Platform. First, the 96-well HiBiT DNA arrays were diluted 25-fold in Opti-MEM (without serum or phenol red) to a final concentration of 0.0004 μg/μL and 20 μL of the diluted DNAs were transferred into new 96-well plates. Next, promoterless carrier DNA (1 μg/μL) was diluted 25-fold (0.04 μg/μL) and then dispensed into the diluted arrays at 20 μL/well. Following brief mixing, Viafect transfection reagent (Promega) diluted 16-fold into Opti-MEM was dispensed into the plates at 40 μL/well. After mixing by pipetting, plates were incubated for 10 min on the pipetting station deck. The DNA-transfection reagent complexes were then added to plates containing cells. To facilitate the screen, 10 μL of DNA-transfection reagent complexes were added in duplicates to the top 4 and bottom 4 rows, resulting in two identical 48-well arrays per plate. Plates with transfected cells were incubated for 18–20 h at 37 °C/5% CO2. A screen of each tracer across the entire library using two different concentrations requires duplicate plates of transfected cells. Depending on the number of tracers being screened, transfections can be scaled up using the same ratios. The next day, for each tracer, four 20× screening solutions in tracer dilution buffer (Promega) were prepared: two duplicates at final concentration of 20 μM and two duplicates at a final concentration of 2 μM. A competing unmodified compound was added to one of each duplicate at a final concentration of 400 μM. The four resulting solutions were diluted 4-fold in Opti-MEM without serum or phenol red to generate 5× solutions (5 µM and 0.5 µM tracer +/− 100 μM competing compound). To screen the library, a BioTek MultiFlo FX liquid dispenser was used to dispense 22.5 µL of tracer solution to the top 4 rows and 22.5 µL tracer + competing compound solution to the 4 bottom rows. Plates were briefly mixed on an orbital shaker and incubated for 1.5 h at room temperature. […]

ADRA2B = target: T2, ADRA2B (Homo sapiens, UniProt P18089); assay: NanoBRET screen HiBiT-ADRA2B in HEK293; details: ADRA2B
T2 construct: purchased Promega (in-house HiBiT-GPCR construct library, NanoBRET)
T2 sequence (P18089 1-450): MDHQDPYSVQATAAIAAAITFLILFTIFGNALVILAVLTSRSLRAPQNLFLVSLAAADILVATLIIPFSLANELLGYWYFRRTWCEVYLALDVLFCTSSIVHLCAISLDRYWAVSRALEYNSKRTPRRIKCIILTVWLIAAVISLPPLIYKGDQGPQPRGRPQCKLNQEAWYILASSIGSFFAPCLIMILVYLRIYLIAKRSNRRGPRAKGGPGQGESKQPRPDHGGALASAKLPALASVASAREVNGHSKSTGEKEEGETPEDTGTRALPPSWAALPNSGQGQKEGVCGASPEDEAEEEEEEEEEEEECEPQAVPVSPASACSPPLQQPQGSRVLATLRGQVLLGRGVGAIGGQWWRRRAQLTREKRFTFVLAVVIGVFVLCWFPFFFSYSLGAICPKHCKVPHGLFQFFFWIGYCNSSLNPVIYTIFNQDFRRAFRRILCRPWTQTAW

CXCR3 = target: T3, CXCR3 (Homo sapiens, UniProt P49682); assay: NanoBRET screen HiBiT-CXCR3 in HEK293; details: CXCR3
T3 construct: purchased Promega (in-house HiBiT-GPCR construct library, NanoBRET)
T3 sequence (P49682 1-368): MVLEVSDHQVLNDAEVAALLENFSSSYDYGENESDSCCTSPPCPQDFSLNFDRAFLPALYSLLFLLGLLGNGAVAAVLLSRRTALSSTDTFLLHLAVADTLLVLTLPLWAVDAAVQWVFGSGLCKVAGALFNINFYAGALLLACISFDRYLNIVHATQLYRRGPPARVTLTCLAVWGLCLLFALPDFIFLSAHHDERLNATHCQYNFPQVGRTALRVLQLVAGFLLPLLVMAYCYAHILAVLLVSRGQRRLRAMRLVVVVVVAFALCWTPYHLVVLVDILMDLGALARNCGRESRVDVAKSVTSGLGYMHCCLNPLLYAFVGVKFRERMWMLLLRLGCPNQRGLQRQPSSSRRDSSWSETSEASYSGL
Description: as §1, §2

TACR2 = target: T4, TACR2 (Homo sapiens, UniProt P21452); assay: NanoBRET screen HiBiT-TACR2 in HEK293; details: TACR2
T4 construct: purchased Promega (in-house HiBiT-GPCR construct library, NanoBRET)
T4 sequence (P21452 1-398): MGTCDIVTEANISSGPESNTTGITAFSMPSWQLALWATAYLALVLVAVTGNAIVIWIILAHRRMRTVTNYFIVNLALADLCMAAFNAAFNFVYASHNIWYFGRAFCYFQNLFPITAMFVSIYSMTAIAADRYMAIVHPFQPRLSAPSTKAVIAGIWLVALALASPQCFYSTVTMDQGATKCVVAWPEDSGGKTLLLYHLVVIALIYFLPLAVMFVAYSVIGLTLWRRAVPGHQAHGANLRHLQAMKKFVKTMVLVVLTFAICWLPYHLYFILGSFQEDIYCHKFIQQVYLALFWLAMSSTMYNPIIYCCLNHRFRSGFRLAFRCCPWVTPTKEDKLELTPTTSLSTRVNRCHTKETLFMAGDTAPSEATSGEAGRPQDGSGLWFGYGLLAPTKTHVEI
Description: as §1, §2

CXCR6 = target: T5, CXCR6 (Homo sapiens, UniProt O00574); assay: NanoBRET screen HiBiT-CXCR6 in HEK293; details: CXCR6
T5 construct: purchased Promega (in-house HiBiT-GPCR construct library, NanoBRET)
Description: as §1, §2

T5 sequence (O00574 whole entry): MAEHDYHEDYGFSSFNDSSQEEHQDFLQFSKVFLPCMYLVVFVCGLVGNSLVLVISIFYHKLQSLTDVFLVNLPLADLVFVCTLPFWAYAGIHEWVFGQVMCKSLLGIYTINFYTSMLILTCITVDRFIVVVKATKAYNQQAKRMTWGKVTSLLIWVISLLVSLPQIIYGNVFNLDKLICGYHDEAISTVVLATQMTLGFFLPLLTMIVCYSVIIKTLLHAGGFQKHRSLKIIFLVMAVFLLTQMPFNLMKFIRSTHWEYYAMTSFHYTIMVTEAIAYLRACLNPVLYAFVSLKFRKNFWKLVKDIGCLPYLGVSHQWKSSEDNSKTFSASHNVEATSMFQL
T1 sequence (P48146 whole entry): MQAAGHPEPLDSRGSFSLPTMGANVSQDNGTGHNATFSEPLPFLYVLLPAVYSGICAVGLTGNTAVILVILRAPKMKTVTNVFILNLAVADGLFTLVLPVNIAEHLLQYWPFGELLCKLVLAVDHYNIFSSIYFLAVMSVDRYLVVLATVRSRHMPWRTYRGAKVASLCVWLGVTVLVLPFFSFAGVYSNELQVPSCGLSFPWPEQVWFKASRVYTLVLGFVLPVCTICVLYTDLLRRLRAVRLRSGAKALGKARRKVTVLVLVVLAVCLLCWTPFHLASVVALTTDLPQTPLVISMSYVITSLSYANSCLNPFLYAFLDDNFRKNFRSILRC

SMILES | NanoBRET Fold Response (NPBWR2; tracer 0.1μM) | NanoBRET Fold Response (NPBWR2; tracer 1μM) | NanoBRET Fold Response (ADRA2B; tracer 0.1μM) | NanoBRET Fold Response (ADRA2B; tracer 1μM) | NanoBRET Fold Response (CXCR3; tracer 0.1μM) | NanoBRET Fold Response (CXCR3; tracer 1μM) | NanoBRET Fold Response (TACR2; tracer 0.1μM) | NanoBRET Fold Response (TACR2; tracer 1μM) | NanoBRET Fold Response (CXCR6; tracer 0.1μM) | NanoBRET Fold Response (CXCR6; tracer 1μM)
CC(C)N(CC[C@H](c1ccccc1)c1cc(CCNC(=O)c2ccc(CNC(=O)CCc3ccc4n3[B-](F)(F)[N+]3=C(c5ccc[nH]5)C=CC3=C4)cc2)ccc1O)C(C)C [Tolterodine-BZ-NB590] | 0.96 | 1.06 | 1.04 | 1.13 | 1.11 | 0.96 | 1.38 | 1.40 | 0.99 | 0.98
CCCn1c(=O)c2[nH]c(-c3ccc(OCC(=O)NCCNC(=O)CCOCCNC(=O)c4ccc(CNC(=O)CCc5ccc6n5[B-](F)(F)[N+]5=C(c7ccc[nH]7)C=CC5=C6)cc4)cc3)nc2n(CCC)c1=O [XAC-3-NB590] | 1.01 | 0.99 | 0.91 | 0.95 | 0.93 | 1.60 | 0.96 | 1.21 | 1.06 | 1.09
